Like-named read-outs stand apart in the source and are kept apart here.
What was measured:
[1] = tested on: Green Peach Aphid (Myzus persicae); assay: Insecticidal test for green peach aphid in foliar spray assay on cabbage; assay type: in vivo; conditions: 72 h, read-out: Rating against green peach aphid on cabbage (foliar spray)
Description: Compounds 1-67 were tested against green peach aphid using procedures described hereinafter.
Insecticidal Test for Green Peach Aphid (Myzus persicae) in Foliar Spray Assay
Cabbage seedlings grown in 3-inch pots, with 2-3 small (3-5 cm) true leaves, were used as test substrate. The seedlings were infested with 20-50 green peach aphids (wingless adult and nymph) 1-2 d prior to chemical application. Four seedlings were used for each treatment. Compounds (2 mg) were dissolved in 2 mL of acetone-methanol (1:1) solvent, forming stock solutions of 1000 ppm. The stock solutions were diluted 5× with 0.025% Tween 20 in H2O to obtain a solution at 200 ppm. A hand-held Devilbiss aspirator sprayer was used for spraying a solution to both sides of cabbage leaves until runoff. Reference plants (solvent check) were sprayed with the diluent only. Treated plants were held in a holding room for 3 d at approximately 23° C. and 40% RH prior to grading. Evaluation was conducted by counting the number of live aphids per plant under a microscope. Insecticidal activity was measured by using Abbott's correction formula: Corrected % Control=100*(X−Y)/X • where X=No. of live aphids on solvent check plants • Y=No. of live aphids on treated plants

[2] = 200 ppm foliar spray on cabbage seedlings, graded after 3 d, corrected % control (Abbott)

SMILES	melting point	pest or weed control at 200 ppm [1, 2]	pest or weed control at 200 ppm ([1]; foliar)
CC(c1ccc(C(F)(F)F)nc1)S(C)(=O)=NC(=S)Nc1ccc(Cl)cc1 (centres unmarked) [Compound 20]	181 to 183 °C	< 80%	
CC(c1ccc(C(F)(F)F)nc1)S(C)(=O)=NC(=S)Nc1ccc(OC(F)(F)F)cc1 (centres unmarked) [Compound 21]	149 to 151 °C	< 80%	
CS(=O)(Cc1ccc(C(F)(F)F)nc1)=NC(=S)NC(=O)OCC1c2ccccc2-c2ccccc21 (centres unmarked) [Compound 28, 9H-Fluoren-9-ylmethyl[(methyl(oxido){[6-(trifluoromethyl)pyridin-3-yl]methyl}-λ^4-sulfanylidene)amino]carbonothioylcarbamate]	92 to 97 °C		< 80%
CS(=O)(Cc1ccc(Cl)nc1)=NC(=S)NC(=O)OCC1c2ccccc2-c2ccccc21 (centres unmarked) [Compound 30, 9H-Fluoren-9-ylmethyl{[[(6-chloropyridin-3-yl)methyl](methyl)oxido-λ^4-sulfanylidene]amino}carbonothioylcarbamate]	98 to 101 °C		< 80%
CC(c1ccc(C(F)(F)F)cc1)S(C)(=O)=NC(=S)NC(=O)OCC1c2ccccc2-c2ccccc21 (centres unmarked) [Compound 34, 9H-Fluoren-9-ylmethyl[(methyl(oxido){1-[4-(trifluoromethyl)phenyl]-ethyl}-λ^4-sulfanylidene)amino]carbonothioylcarbamate]	86 to 93 °C		< 80%
CC(c1ccc(C(F)(F)F)cc1)S(C)(=O)=NC(N)=S (centres unmarked) [Compound 35, N-(methyl(oxido){1-[4-(trifluoromethyl)phenyl]ethyl}-λ^4-sulfanylidene)thiourea]	166 to 168 °C	< 80%	
NC(=S)N=S1(=O)CCCC1c1ccc(Cl)nc1 (centres unmarked) [Compound 36, N-[2-(6-chloropyridin-3-yl)-1-oxidotetrahydro-1H-1λ^4-thien-1-ylidene]thiourea]	168 to 172 °C	80 to 100%	
COC(=O)CCC(=O)NC(=S)N=S(C)(=O)C(C)c1ccc(C(F)(F)F)nc1 (centres unmarked) [Compound 37, methyl 4-({[(methyl(oxido){1-[6-(trifluoromethyl)pyridin-3-yl]ethyl}-λ^4-sulfanylidene)amino]carbonothioyl}amino)-4-oxobutanoate]	131 to 133 °C	80 to 100%	

Continued, in another order:

melting point	SMILES	pest or weed control at 200 ppm [1, 2]	pest or weed control at 200 ppm ([1]; foliar)
145 to 147 °C	CC(c1ccc(C(F)(F)F)nc1)S(C)(=O)=NC(N)=S (centres unmarked) [Compound 22, N-(methyl(oxido){1-[6-(trifluoromethyl)pyridin-3-yl]ethyl}-λ^4-sulfanylidene)thiourea]	80 to 100%	
155 to 158 °C	CS(=O)(Cc1ccc(Cl)nc1)=NC(N)=S (centres unmarked) [Compound 31, N-[[(6-chloropyridin-3-yl)methyl](methyl)oxido-λ^4-sulfanylidene]thiourea]	80 to 100%	
137 to 140 °C	Cc1ccc(C(C)S(C)(=O)=NC(N)=S)cn1 (centres unmarked) [Compound 33, N-{methyl[1-(6-methylpyridin-3-yl)ethyl]oxido-λ^4-sulfanylidene}-thiourea]	80 to 100%	
157 to 159 °C	CC(c1ccc(C(F)(F)F)nc1)S(C)(=O)=N/C(N)=N/O (centres unmarked) [Compound 38, N″-hydroxy-N-(methyl(oxido){1-[6-(trifluoromethyl)pyridin-3-yl]ethyl}-λ^4-sulfanylidene)guanidine]	80 to 100%	
156 to 158 °C	CS(=O)(Cc1ccc(Cl)nc1)=N/C(N)=N/O (centres unmarked) [Compound 39, N-[[(6-chloropyridin-3-yl)methyl](methyl)oxido-λ^4-sulfanylidene]-N″-hydroxyguanidine]	80 to 100%	

Source: patent US8445689B2, “Pesticides” (Dow AgroSciences, LLC., priority 2008, dated 2013)
